How the values were obtained:
[1] = biological target: T1, ERα (Homo sapiens, UniProt P03372); assay: ERα reporter (luciferase) transactivation assay in transfected HEK293 cells; assay type: cell-based; set-up: expressed in transfected cells; host or cells: HEK293; conditions: sample concentration 10 μM, 24 hours, mean of at least three independent transfections
T1 sequence (P03372 1-595): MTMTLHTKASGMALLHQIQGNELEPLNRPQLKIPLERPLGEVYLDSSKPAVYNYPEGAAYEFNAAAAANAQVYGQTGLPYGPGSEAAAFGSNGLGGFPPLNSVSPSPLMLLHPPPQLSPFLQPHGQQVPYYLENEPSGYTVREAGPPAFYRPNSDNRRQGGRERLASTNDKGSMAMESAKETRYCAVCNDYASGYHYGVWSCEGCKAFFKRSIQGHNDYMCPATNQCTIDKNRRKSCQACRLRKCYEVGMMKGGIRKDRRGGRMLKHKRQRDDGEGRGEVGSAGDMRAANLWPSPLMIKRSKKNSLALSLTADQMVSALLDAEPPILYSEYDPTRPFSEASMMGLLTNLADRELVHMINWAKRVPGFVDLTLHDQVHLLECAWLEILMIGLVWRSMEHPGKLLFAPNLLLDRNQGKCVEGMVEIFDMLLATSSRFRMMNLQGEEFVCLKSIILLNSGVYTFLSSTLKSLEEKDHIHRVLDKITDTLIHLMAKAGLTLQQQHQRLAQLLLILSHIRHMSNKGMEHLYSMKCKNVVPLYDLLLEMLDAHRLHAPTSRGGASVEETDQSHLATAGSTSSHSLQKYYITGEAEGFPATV
Procedure: (§1) Determination of the Estrogen Activity of the Compounds: Cell Culture, Transfection and Reporter Assays
(§2) All other reagents were of reagent grade from Sigma or Fluka. One day before transfection, HEK293 cells were seeded in 48-well plates (70×10^3 cells per well) in phenol-free Dulbecco's modified Eagle medium supplemented with 5% delipidated fetal bovine serum (Sigma) and antibiotics. After a medium change, the cells were transfected for 4 hours with 5 ng ERα or ERβ expression vector, 75 ng reporter plasmid pERE2TATA-LUC and 20 ng control plasmid pCMVβ by the calcium phosphate method. After transfection, the cells received fresh medium containing either vehicle (0.1% v/v) or test compound (10 μM). After 24 hours, the cells were washed, lysed and luciferase and β-galactosidase activities were determined from 20 μl of lysates with the Victor^2TM reader (PerkinElmer Wallac, Turku, Finland). […] The data are means ±SEM of at least three independent transfections.

[2] = biological target: ERβ (Homo sapiens, UniProt Q92731); assay: ERβ reporter (luciferase) transactivation assay in transfected HEK293 cells; assay type: cell-based; set-up: expressed in transfected cells; host or cells: HEK293; conditions: for ERβ receptor activation relative to 10 nM E2 corresponding 100: sample concentration 10 μM, 24 hours, mean of at least three independent transfections; for activation at 10 µM: HEK293, 24 h, read-out: ERβ receptor activation relative to 10 nM E2 corresponding 100, sample concentration 10 μM, mean of at least three independent transfections
Procedure: as §1, §2

Chain of ERβ (Q92731 whole entry): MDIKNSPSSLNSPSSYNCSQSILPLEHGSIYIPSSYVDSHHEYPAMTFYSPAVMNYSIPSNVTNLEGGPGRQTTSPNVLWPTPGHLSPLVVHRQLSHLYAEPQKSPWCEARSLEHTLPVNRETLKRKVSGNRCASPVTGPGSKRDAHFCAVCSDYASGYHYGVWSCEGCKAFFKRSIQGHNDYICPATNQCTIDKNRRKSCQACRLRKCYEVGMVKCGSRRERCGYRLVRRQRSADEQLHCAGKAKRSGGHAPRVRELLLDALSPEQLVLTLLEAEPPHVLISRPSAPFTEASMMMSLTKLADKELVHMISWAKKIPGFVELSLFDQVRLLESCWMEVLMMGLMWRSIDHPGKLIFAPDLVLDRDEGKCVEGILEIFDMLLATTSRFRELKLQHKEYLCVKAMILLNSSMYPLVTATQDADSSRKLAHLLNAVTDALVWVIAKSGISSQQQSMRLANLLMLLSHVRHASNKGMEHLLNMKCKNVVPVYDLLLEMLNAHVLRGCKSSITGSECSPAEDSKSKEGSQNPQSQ

| Compound | ERα receptor activation relative to 10 nM E2 corresponding 100 [1] | ERβ receptor activation relative to 10 nM E2 corresponding 100 [2] | activation at 10 µM [2] |
| --- | --- | --- | --- |
| COc1ccc(C2=NOC(Cc3ccccc3)C2)cc1 (single isomer, unassigned) [12a, 5-Benzyl-3-(4-methoxyphenyl)-4,5-dihydroisoxazole] | 55.2% | 17.2% |  |
| COc1ccc(C2=NOC(Cc3ccccc3)C2)cc1 (single isomer, unassigned) [12b, 5-Benzyl-3-(4-methoxyphenyl)-4,5-dihydroisoxazole] | 9.7% | 7.9% |  |
| COc1ccccc1CC1CC(CCc2ccccc2)=NO1 (single isomer, unassigned) [64a, 5-(2-Methoxybenzyl)-3-phenethyl-4,5-dihydroisoxazole] | 18.9% |  | 9.5% |
| COc1ccccc1CC1CC(CCc2ccccc2)=NO1 (single isomer, unassigned) [64b, 5-(2-Methoxybenzyl)-3-phenethyl-4,5-dihydroisoxazole] | 0.4% | 6.4% |  |
| COc1ccc(CC2CC(CCc3ccccc3)=NO2)cc1 (single isomer, unassigned) [65a, 5-(4-Methoxybenzyl)-3-phenethyl-4,5-dihydroisoxazole] | 0.8% | 10.6% |  |
| COc1ccc(CC2CC(CCc3ccccc3)=NO2)cc1 (single isomer, unassigned) [65b, 5-(4-Methoxybenzyl)-3-phenethyl-4,5-dihydroisoxazole] | 16.1% |  | 13.2% |
| Fc1ccc(CC2CC(CCc3ccccc3)=NO2)cc1 (single isomer, unassigned) [66a, 5-(4-fluorobenzyl)-3-phenethyl-4,5-dihydroisoxazole] | 99.2% |  | 11.2% |
| Fc1ccc(CC2CC(CCc3ccccc3)=NO2)cc1 (single isomer, unassigned) [66b, 5-(4-fluorobenzyl)-3-phenethyl-4,5-dihydroisoxazole] | 28.9% | 7.4% |  |
| c1ccc(CCC2=NOC(Cc3cccc4ccccc34)C2)cc1 (single isomer, unassigned) [67a, 5-naphthalen-1-yl-methyl-3-phenethyl-4,5-dihydroisoxazole] | 34.1% |  | 10.5% |
| c1ccc(CCC2=NOC(Cc3cccc4ccccc34)C2)cc1 (single isomer, unassigned) [67b, 5-naphthalen-1-yl-methyl-3-phenethyl-4,5-dihydroisoxazole] | 17.2% | 6.5% |  |
| c1ccc(CCC2=NOC(Cc3ccc4ccccc4c3)C2)cc1 (single isomer, unassigned) [68a, 5-naphthalen-2-yl-methyl-3-phenethyl-4,5-dihydroisoxazole] | 22.3% | 8.2% |  |
| c1ccc(CCC2=NOC(Cc3ccc4ccccc4c3)C2)cc1 (single isomer, unassigned) [68b, 5-naphthalen-2-yl-methyl-3-phenethyl-4,5-dihydroisoxazole] | 13.0% | 3.8% |  |

Further lines, results first:

| ERα receptor activation relative to 10 nM E2 corresponding 100 [1] | ERβ receptor activation relative to 10 nM E2 corresponding 100 [2] | activation at 10 µM [2] | Compound |
| --- | --- | --- | --- |
| 8.1% | −20.0% |  | CC1(c2ccccc2)CC(CCc2ccccc2)=NO1 (single isomer, unassigned) [71a, 5-Methyl-3-phenethyl-5-phenyl-4,5-dihydroisoxazole] |
| 10.9% | −7.3% |  | CC1(c2ccccc2)CC(CCc2ccccc2)=NO1 (single isomer, unassigned) [71b, 5-Methyl-3-phenethyl-5-phenyl-4,5-dihydroisoxazole] |
| 9.2% | −5.8% |  | COc1ccc(CCCC2=NOC(c3ccccc3)C2)cc1 (single isomer, unassigned) [72a, 3-[3-(4-Methoxy-phenyl)-propyl]-5-phenyl-4,5-dihydroisoxazole] |
| 1.2% | −9.0% |  | COc1ccc(CCCC2=NOC(c3ccccc3)C2)cc1 (single isomer, unassigned) [72b, 3-[3-(4-Methoxy-phenyl)-propyl]-5-phenyl-4,5-dihydroisoxazole] |
| 52.0% |  | 28.5% | Oc1ccc(C2=NOC(Cc3ccccc3)C2)cc1 (single isomer, unassigned) [80a, 5-Benzyl-3-(4-hydroxy-phenyl)-4,5-dihydro-isoxazole] |
| 58.6% | 17.7% |  | Oc1ccc(C2=NOC(Cc3ccccc3)C2)cc1 (single isomer, unassigned) [80b, 5-Benzyl-3-(4-hydroxy-phenyl)-4,5-dihydro-isoxazole] |
| 30.8% |  | 33.2% | Oc1ccc(CC2=NOC(c3cccc(O)c3)C2)cc1 (single isomer, unassigned) [83a, 3-(4-Hydroxy-benzyl)-5-(3-hydroxy-phenyl)-4,5-dihydro-isoxazole] |
| 3.6% | 41.3% |  | Oc1ccc(CC2=NOC(c3cccc(O)c3)C2)cc1 (single isomer, unassigned) [83b, 3-(4-Hydroxy-benzyl)-5-(3-hydroxy-phenyl)-4,5-dihydro-isoxazole] |
| 32.9% |  | 12% | Oc1ccc(CCCC2=NOC(c3cccc(O)c3)C2)cc1 (single isomer, unassigned) [89a, 3-[3-(4-Hydroxy-phenyl)-propyl]-5-(3-hydroxy-phenyl)-4,5-dihydro-isoxazole] |
| 27.6% | 7.2% |  | Oc1ccc(CCCC2=NOC(c3cccc(O)c3)C2)cc1 (single isomer, unassigned) [89b, 3-[3-(4-Hydroxy-phenyl)-propyl]-5-(3-hydroxy-phenyl)-4,5-dihydro-isoxazole] |
| 104.8% |  | 19.2% | Oc1ccccc1CCC1=NOC(Cc2ccccc2)C1 (single isomer, unassigned) [91a, 5-Benzyl-3-[2-(2-hydroxy-phenyl)-ethyl]-4,5-dihydro-isoxazole] |
| 39.7% | 30.5% |  | Oc1ccccc1CCC1=NOC(Cc2ccccc2)C1 (single isomer, unassigned) [91b, 5-Benzyl-3-[2-(2-hydroxy-phenyl)-ethyl]-4,5-dihydro-isoxazole] |
| 19.2% | 6.7% |  | Oc1cccc(CCC2=NOC(Cc3ccccc3)C2)c1 (single isomer, unassigned) [92a, 5-Benzyl-3-[2-(3-hydroxy-phenyl)-ethyl]-4,5-dihydro-isoxazole] |
| 15.7% | −2.5% |  | Oc1cccc(CCC2=NOC(Cc3ccccc3)C2)c1 (single isomer, unassigned) [92b, 5-Benzyl-3-[2-(3-hydroxy-phenyl)-ethyl]-4,5-dihydro-isoxazole] |
| 34.2% | 9.1% |  | Oc1ccc(CC2CC(CCc3ccccc3)=NO2)cc1 (single isomer, unassigned) [94a, 5-(4-Hydroxy-benzyl)-3-phenethyl-4,5-dihydro-isoxazole] |
| 105.2% | 42.4% |  | Oc1ccc(CC2CC(CCc3ccccc3)=NO2)cc1 (single isomer, unassigned) [94b, 5-(4-Hydroxy-benzyl)-3-phenethyl-4,5-dihydro-isoxazole] |
| 20.4% | 2.4% |  | Oc1ccc(CC2CC(CCc3ccccc3O)=NO2)cc1 (single isomer, unassigned) [95a, 5-(4-Hydroxy-benzyl)-3-[2-(2-hydroxy-phenyl)-ethyl]-4,5-dihydro-isoxazole] |

— patent US20100267784A1, “NOVEL 4,5-DIHYDROISOXAZOLES WITH ESTROGENIC ACTIVITY” (priority 2007, published 2010)
